{"source": "paper PMC3131588", "about": "“Effects of Onion (Allium cepa L.) Extract Administration on Intestinal α-Glucosidases Activities and Spikes in Postprandial Blood Glucose Levels in SD Rats Model” (International Journal of Molecular Sciences, 2011)", "key": {"rat intestinal maltase": {"target": "T1, rat intestinal maltase", "T1 construct": "gene Mgam; native enzymes in crude supernatant of rat intestinal acetone powder (Sigma-Aldrich); maltase activity not resolved to one gene product", "assay": "maltose hydrolysis, liberated glucose by glucose oxidase method", "format": "biochemical", "conditions": "maltose 0.4 mg/mL, 0.1 M phosphate pH 7.0, 37 °C, 30 min; crude rat intestinal enzyme; quercetin bought as dihydrate", "text": "maltose hydrolysis, liberated glucose by glucose oxidase method on rat intestinal maltase"}, "[1]": {"target": "T2, rat intestinal α-glucosidase", "T2 construct": "gene Mgam; native enzymes in crude supernatant of rat intestinal acetone powder (Sigma-Aldrich), EC 3.2.1.20; not resolved to one gene product", "assay": "p-nitrophenyl-α-D-glucopyranoside hydrolysis, absorbance at […] nm", "format": "biochemical", "conditions": "5 mM p-nitrophenyl-α-D-glucopyranoside stock (50 μL), 0.1 M phosphate pH 6.9, 25 °C; crude rat intestinal enzyme; quercetin bought as dihydrate"}}}
{"smiles": "O=c1c(O)c(-c2ccc(O)c(O)c2)oc2cc(O)cc(O)c12", "note": "[quercetin, 3,3′,4′,5,7-Pentahydroxyflavone dihydrate]", "values": [{"measurement": "IC50", "setting": "rat intestinal maltase", "value": 70, "unit": "µg/mL"}, {"measurement": "IC50", "setting": "[1]", "value": 150, "unit": "µg/mL"}]}
